# Measured values published in ChEMBL document CHEMBL1130376, “Effects of taxoids from Taxus cuspidata on microtubule depolymerization and vincristine accumulation in MDR cells” (Bioorg Med Chem Lett, 1997).
# How the values were obtained:
# [1] = Cytotoxicity against human epidermoid carcinoma KB cells; type: functional, cell-based
# [2] = Vincristine (VCR) accumulation in multidrug resistant human ovarian cancer 2780 AD cells at a concentration 1 ug/mL; type: functional
# [3] = Vincristine (VCR) accumulation in multidrug resistant human ovarian cancer 2780 AD cells at a concentration 10 ug/mL; type: functional
# L1210 = assay: Cytotoxicity against murine leukemia L1210 cells; type: functional, cell-based, Mus musculus
# [4] = Mus musculus, L1210, read-out: IC50
Compound,IC50 [1],vincristine accumulation (% of control) [2],vincristine accumulation (% of control) [3],IC50 (L1210; [4]),IC50 (L1210; l1210)
CC(=O)O[C@H]1[C@@H]2[C@H](CO)[C@@H](OC(C)=O)C[C@H](OC(C)=O)[C@@]2(C)[C@@H](OC(C)=O)[C@H](OC(C)=O)C2=C(C)[C@@H](OC(C)=O)C[C@@H]1C2(C)C,4.5 µg/mL,177%,264%,10 µg/mL,–
CC(=O)O[C@@]12CO[C@@H]1C[C@@H](O)[C@@]1(C)C(=O)[C@H](O)C3=C(C)[C@@H](OC(=O)[C@H](O)C(NC(=O)c4ccccc4)c4ccccc4)C[C@@](O)([C@@H](OC(=O)c4ccccc4)[C@H]21)C3(C)C (stereo partly drawn),0.013 µg/mL,192%,218%,0.71 µg/mL,–
C=C1[C@@H](OC(=O)/C=C/c2ccccc2)C[C@H](OC(C)=O)[C@]2(C)[C@@H]1C[C@]1(C(C)(C)O)C[C@H](OC(C)=O)C(C)=C1[C@@H](OC(=O)c1ccccc1)[C@@H]2OC(C)=O [TAXUSPINE A],> 10 µg/mL,142%,246%,4.2 µg/mL,–
CC(=O)O[C@H]1C(=O)[C@@]2(C)[C@H]([C@H](OC(=O)c3ccccc3)[C@]3(O)C[C@H](OC(=O)[C@H](O)[C@@H](NC(=O)c4ccccc4)c4ccccc4)C(C)=C1C3(C)C)[C@]1(OC(C)=O)CO[C@@H]1C[C@@H]2O [PACLITAXEL],–,83%,56%,–,–
C=C1[C@@H](OC(=O)/C=C/c2ccccc2)C[C@H](OC(C)=O)[C@@]2(COC(C)=O)[C@@H](OC(C)=O)[C@H](O)[C@]3(O)[C@@]4(C)CO[C@]3(C)C(=O)C[C@H]4[C@@H](OC(C)=O)[C@H]12 [TAXUSPINE T],0.06 µg/mL,196%,308%,1 µg/mL,–
C=C1[C@@H](O)C[C@H](O)[C@@]2(C)[C@@H](OC(C)=O)[C@H](OC(C)=O)C3=C(C)C(=O)C[C@@]3(C(C)(C)O)[C@@H](OC(C)=O)[C@H]12,> 10 µg/mL,151%,191%,> 10 µg/mL,–
CC(=O)O[C@H]1C[C@@H]2OC[C@@]2(OC(C)=O)[C@H]2[C@H](OC(=O)c3ccccc3)[C@]3(O)C[C@H](O)C(C)=C([C@@H](O)[C@H](O)[C@]12C)C3(C)C,0.08 µg/mL,–,–,0.27 µg/mL,–
CC(=O)O[C@@]12CO[C@@H]1C[C@H](O)[C@@]1(C)C(=O)[C@H](O)C3=C(C)[C@@H](OC(=O)[C@H](O)C(NC(=O)C4CCC4)c4ccccc4)C[C@@](O)([C@@H](OC(=O)c4ccccc4)[C@H]21)C3(C)C (stereo partly drawn),0.0048 µg/mL,–,–,0.95 µg/mL,–
CC(=O)O[C@H]1C[C@@]2(O)[C@H]3OC[C@]4(OC(C)=O)[C@H](O)C[C@H](OC(C)=O)[C@](C)([C@H]34)[C@@H](OC(C)=O)[C@H](OC(C)=O)C(=C1C)C2(C)C,8.8 µg/mL,167%,234%,4.5 µg/mL,–
CC(=O)O[C@@]12CO[C@@H]1C[C@H](O)[C@@]1(C)C(=O)[C@H](O)C3=C(C)[C@@H](OC(=O)[C@H](O)C(NC(=O)c4ccccc4)c4ccccc4)C[C@@](O)([C@@H](OC(=O)c4ccccc4)[C@H]21)C3(C)C (stereo partly drawn),0.015 µg/mL,–,–,0.88 µg/mL,–
C=C1[C@@H](OC(=O)/C=C/c2ccccc2)CC[C@]2(C)[C@@H]1C[C@@H]1C[C@H](OC(C)=O)C(C)=C([C@@H](OC(C)=O)[C@@H]2OC(C)=O)C1(C)C,8.2 µg/mL,102%,517%,9.5 µg/mL,–
C=C1[C@@H](OC(=O)/C=C/c2ccccc2)CC[C@@]2(C)[C@@H](OC(C)=O)[C@H](OC(C)=O)C3=C(C)C(=O)C[C@@](O)([C@@H](OC(C)=O)[C@H]12)C3(C)C,6.9 µg/mL,167%,436%,4.6 µg/mL,–
C=C1[C@@H](OC(=O)/C=C/c2ccccc2)C[C@H](OC(C)=O)[C@]2(C)[C@@H]1C[C@]1(C(C)(C)O)C[C@H](OC(C)=O)C(C)=C1[C@@H](O)[C@@H]2OC(C)=O,5.8 µg/mL,176%,584%,1.2 µg/mL,–
C=C1[C@@H](O)C[C@H](OC(C)=O)[C@@]2(COC(C)=O)[C@@H](OC(C)=O)[C@H](OC(C)=O)[C@]3(O)[C@@]4(C)CO[C@]3(C)C(=O)C[C@H]4[C@@H](OC(C)=O)[C@H]12,> 10 µg/mL,142%,198%,> 10 µg/mL,–
C=C1[C@@H](O)C[C@H](OC(C)=O)[C@@]2(C)[C@@H](OC(C)=O)[C@H](OC(C)=O)C3=C(C)C(=O)C[C@@H]([C@@H](OC(C)=O)[C@H]12)C3(C)C,> 10 µg/mL,141%,257%,> 10 µg/mL,–
C=C1[C@@H](O)C[C@H](OC(C)=O)[C@@]2(COC(=O)c3ccccc3)[C@@H](OC(C)=O)[C@H](OC(C)=O)[C@]3(O)[C@@]4(C)CO[C@]3(C)C(=O)C[C@H]4[C@@H](OC(C)=O)[C@H]12 [TAXININ M],9.4 µg/mL,115%,169%,> 10 µg/mL,–

Compound,IC50 [1],vincristine accumulation (% of control) [2],vincristine accumulation (% of control) [3],IC50 (L1210; [4]),IC50 (L1210; l1210)
CC(=O)O[C@H]1C[C@@]2(O)[C@@H](OC(C)=O)[C@@H]3[C@@]4(CO4)[C@@H](OC(C)=O)C[C@H](OC(C)=O)[C@@]3(C)[C@@H](OC(C)=O)[C@H](OC(C)=O)C(=C1C)C2(C)C,> 10 µg/mL,119%,135%,> 10 µg/mL,–
C=C1[C@@H](O)C[C@H](OC(C)=O)[C@@]2(C)[C@@H](OC(C)=O)[C@H](OC(=O)c3ccccc3)C3=C(C)[C@@H](O)C[C@@]3(C(C)(C)O)[C@@H](OC(C)=O)[C@H]12 [TAXCHININ A],0.4 µg/mL,143%,192%,> 10 µg/mL,–
C=C1[C@@H](OC(=O)/C=C/c2ccccc2)C[C@H](OC(C)=O)[C@@]2(CO)[C@@H](OC(C)=O)[C@H](OC(C)=O)[C@]3(O)[C@@]4(C)CO[C@]3(C)C(=O)C[C@H]4[C@@H](OC(C)=O)[C@H]12 [TAXUSPINE S],0.26 µg/mL,136%,190%,3.8 µg/mL,–
CC(=O)O[C@@H]1C2=C(C)[C@@H](O)C[C@@]2(C(C)(C)O)[C@@H](OC(C)=O)[C@@H]2[C@]3(OC(C)=O)CO[C@@H]3C[C@H](OC(C)=O)[C@@]2(C)[C@H]1OC(C)=O,> 10 µg/mL,147%,235%,> 10 µg/mL,–
C=C1[C@@H](OC(=O)/C=C/c2ccccc2)C[C@H](OC(C)=O)[C@]2(C)[C@@H]1C[C@]1(C(C)(C)O)C[C@H](OC(C)=O)C(C)=C1[C@@H](OC(C)=O)[C@@H]2OC(C)=O [TAXUSPINE J],> 10 µg/mL,258%,842%,> 10 µg/mL,–
C=C1[C@@H](OC(=O)/C=C/c2ccccc2)CC[C@@]2(C)[C@@H](OC(C)=O)[C@H](OC(C)=O)[C@@]34[C@H](C)C(=O)C[C@@H]([C@@H](OC(C)=O)C132)C4(C)C (stereo partly drawn),> 10 µg/mL,246%,768%,5.8 µg/mL,–
C=C1[C@@H](OC(=O)CC(c2ccccc2)N(C)C)CC[C@@]2(C)[C@@H](OC(C)=O)[C@H](OC(C)=O)[C@@]34[C@H](C)C(=O)C[C@@H]([C@@H](OC(C)=O)C132)C4(C)C (stereo partly drawn),1.6 µg/mL,174%,567%,> 10 µg/mL,–
C=C1[C@@H](OC(=O)/C=C/c2ccccc2)CC[C@@]2(C)[C@@H](OC(C)=O)[C@H](OC(C)=O)C3=C(C)C(=O)C[C@@H]([C@@H](OC(C)=O)[C@H]12)C3(C)C,> 10 µg/mL,195%,571%,> 10 µg/mL,–
CC(=O)O[C@H]1C(=O)[C@@]2(C)[C@H]([C@H](OC(=O)c3ccccc3)[C@]3(O)C[C@H](OC(=O)[C@H](O)[C@@H](NC(=O)c4ccccc4)c4ccccc4)C(C)=C1C3(C)C)[C@]1(OC(C)=O)CO[C@@H]1C[C@@H]2O (mixture of isomers) [PACLITAXEL],–,132%,138%,–,0.026 µg/mL
CCCCCC(=O)NC(c1ccccc1)[C@@H](O)C(=O)O[C@H]1C[C@@]2(O)[C@@H](OC(=O)c3ccccc3)[C@@H]3[C@]4(OC(C)=O)CO[C@@H]4C[C@H](O)[C@@]3(C)C(=O)[C@H](OC(C)=O)C(=C1C)C2(C)C (stereo partly drawn),0.0053 µg/mL,–,–,0.21 µg/mL,–
C=C1[C@@H](OC(C)=O)CC[C@@]2(C)[C@@H](OC(C)=O)[C@H](OC(C)=O)C3=C(C)[C@@H](OC(C)=O)C[C@@H]([C@@H](OC(C)=O)[C@H]12)C3(C)C,> 10 µg/mL,–,–,> 10 µg/mL,–
COc1ccc(CCN(C)CCCC(C#N)(c2ccc(OC)c(OC)c2)C(C)C)cc1OC (stereo not drawn) [VERAPAMIL],–,254%,739%,–,–
CCCC(=O)NC(c1ccccc1)[C@@H](O)C(=O)O[C@H]1C[C@@]2(O)[C@@H](OC(=O)c3ccccc3)[C@@H]3[C@]4(OC(C)=O)CO[C@@H]4C[C@H](O)[C@@]3(C)C(=O)[C@H](OC(C)=O)C(=C1C)C2(C)C (stereo partly drawn),0.016 µg/mL,–,–,0.21 µg/mL,–
CC(=O)O[C@H]1C[C@@H]2OC[C@@]2(OC(C)=O)[C@H]2[C@H](OC(C)=O)[C@]3(O)C[C@H](OC(=O)CC(c4ccccc4)N(C)C)C(C)=C([C@@H](OC(=O)c4ccccc4)[C@H](OC(C)=O)[C@]12C)C3(C)C (stereo partly drawn),> 10 µg/mL,–,–,7.8 µg/mL,–
CCCCCC(=O)NC(c1ccccc1)[C@@H](O)C(=O)O[C@H]1C[C@@]2(O)[C@@H](OC(=O)c3ccccc3)[C@@H]3[C@]4(OC(C)=O)CO[C@@H]4C[C@H](O)[C@@]3(C)C(=O)[C@H](O)C(=C1C)C2(C)C (stereo partly drawn),0.0017 µg/mL,–,–,0.24 µg/mL,–
